Data from patent US7723070B2, “Overexpression of aminoacyl-tRNA synthetases for efficient production of engineered proteins containing amino acid analogues” (California Institute of Technology, priority 2000, dated 2010).
Read-outs that look alike come from different tables or passages of the source.

System: CAG18491/pQE15-MRS/pREP4
Type: cell-based, E. coli
Conditions: for level of protein synthesis in modified host over conventional host (Western blot, laser densitometry): 5-ml cultures, versus CAG18491/pQE15/pREP4; for yield of mDHFR from large-scale cultures: preliminary results
Experimental: Similarly, a bacterial host capable of overexpressing MetRS was produced by transforming E. coli strains CAG18491 (Novagen, Inc., Madison, Wis., USA), a methionine auxotroph, with repressor plasmid pREP4 and expression plasmid pQE15-MRS, as described for the B834(DE3) strain. A control bacterial host, which produces only mDHFR and normal cellular levels of MetRS, was prepared by transforming CAG18491 with pREP4 and pQE15.
Methionine analogues were synthesized via alkylation of diethylacetamidomalonate, as previously described (As described in Example I, infra; J. C. M. van Hest, D. A. Tirrell, FEBS Lett. 1998, 428, 68-70). Cultures of B834(DE3)/pQE15-MRS/pREP4 or B834(DE3)/pQE15/pREP4 or CAG18491/pQE15-MRS/pREP4 or CAG18491/pQE15/pREP4 in M9AA media were grown to an optical density of 0.90, and the cells were sedimented by centrifugation. The M9AA medium was prepared by supplementing sterile M9 medium with […] of each of the amino acids, 1 mM MgSO4, 0.2 wt % glucose, 1 mg/ml thiamine chloride, and […] calcium chloride. The antibiotics ampicillin and kanamycin were added at concentrations of 200 mg/l and 35 mg/l, respectively.
Cells were washed three times with M9 salts and resuspended to an optical density of 0.90 in M9 test media containing 19 amino acids plus 1) neither methionine nor analogue (negative control); 2) methionine (60 mg/liter, positive control); or 3) an analogue of interest (60 mg/liter). To test the effect of increasing the level of supplementation of the analogues, a set of experiments was also conducted in which the medium was supplemented with 500 mg/liter of methionine or the amino acid analogue. Expression of mDHFR was induced by addition of 0.4 mM isopropyl β-D-thiogalactopyranoside (IPTG), and protein synthesis was monitored after 4.5 hours.
Buffers and media were prepared according to standard protocols (Ausubel, F. M.; Brent, R.; Kingston, R. E.; Moore, D. D.; Seidman, J. G.; Smith, J. A.; Struhl, K., Eds. Current Protocols in Molecular Biology; John Wiley and Sons: New York, 1998). The E. coli methionine auxotroph CAG18491 (λ^−, rph-1, metE3079.:Tn10) was transformed with plasmids pQE15 and pREP4 (Qiagen), to obtain the expression host CAG18491/pQE15/pREP4. […] Both bacterial expression hosts produce the target protein mDHFR under control of a bacteriophage T5 promoter; the modified host also expresses extra copies of the MetRS gene under control of the constitutive metG p1 promoter (Dardel, F.; Panvert, M.; Fayat, G. Mol. Gen. Genet. 1990, 223, 121.133).
M9AA medium (100 mL) supplemented with 1 mM MgSO4 0.2 wt % glucose, 1 mg/L thiamine chloride and the antibiotics ampicillin (200 mg/L) and kanamycin (35 mg/L) was inoculated with the appropriate E. coli strain (CAG18491/pQE15/pREP4 or CAG18491/pQE15-MRS/pREP4) and grown overnight at 37° C. This culture was used to inoculate 900 mL M9AA medium supplemented as described. The cells were grown to an optical density at 600 nm (OD600) of approximately 0.9 and a medium shift was performed. The cells were sedimented for 10 min at 3030 g at 4° C., the supernatant was removed, and the cell pellet was washed twice with 600 mL of M9 medium. Cells were resuspended in 1000 mL of the M9AA medium described above, without methionine, and supplemented with 20 mg/L of the L-isomer of either 1, 2, 3, or 9. Protein synthesis was induced by addition of isopropyl-β-D-thiogalactopyranoside (IPTG) to a final concentration of 0.4 mM. Samples (1 mL) were collected after 4.5 hours, the OD600 measured, and cells resuspended with distilled water to yield a normalized OD600 of 20.

Molecule: C=CCCC(N)C(=O)O (racemic) [Analogue 2, DL-2-amino-5-hexenoic acid]
- level of protein synthesis in modified host over conventional host (Western blot, laser densitometry): approximately 1.5 fold
- yield of mDHFR from large-scale cultures: approximately 35 mg/L

Molecule: CCC[C@H](N)C(=O)O [Analogue 8, L-norvaline]
- mDHFR expression (SDS-PAGE) (500 mg/liter): able to produce the target protein

Molecule: 2-butynylglycine [Analogue 11]
- mDHFR expression (SDS-PAGE) (60 mg/L): strong induction of mDHFR

Molecule: C/C=C\CC(N)C(=O)O (racemic) [Analogue 4, cis-2-amino-4-hexenoic acid]
- mDHFR expression (SDS-PAGE) (500 mg/liter): able to produce the target protein

Molecule: CCCC[C@H](N)C(=O)O [Analogue 9, L-norleucine]
- level of protein synthesis in modified host over conventional host (Western blot, laser densitometry): approximately 1.4 fold
- yield of mDHFR from large-scale cultures: approximately 35 mg/L

Molecule: C=CCC(N)C(=O)O (centres unmarked) [Analogue 12, allylglycine]
- mDHFR expression (SDS-PAGE) (500 mg/liter): able to produce the target protein

Molecule: CSCC[C@H](N)C(=O)O [Analogue 1, L-methionine, reference compound]
- level of protein synthesis in modified host over conventional host (Western blot, laser densitometry): does not exhibit higher levels of protein synthesis

Molecule: C#CCCC(N)C(=O)O (racemic) [Analogue 3, DL-homopropargylglycine]
- level of protein synthesis in modified host over conventional host (Western blot, laser densitometry): does not exhibit higher levels of protein synthesis

Molecule: CCCCCC(N)C(=O)O (racemic) [Analogue 7, DL-2-aminoheptanoic acid]
- mDHFR expression (SDS-PAGE) (500 mg/liter): able to produce the target protein
